From ChEMBL document CHEMBL1201862, “PubChem BioAssay data set” (2004)
Active and inactive are the calls of the source. For most assays here, no stated cut-off is given here; in the data, actives have a measured EC50 and inactives only a lower limit.

Legend:
Protein skinhead-1 = target: T1, Protein skinhead-1 (Caenorhabditis elegans, UniProt P34707); type: functional
T1 sequence (P34707 whole entry): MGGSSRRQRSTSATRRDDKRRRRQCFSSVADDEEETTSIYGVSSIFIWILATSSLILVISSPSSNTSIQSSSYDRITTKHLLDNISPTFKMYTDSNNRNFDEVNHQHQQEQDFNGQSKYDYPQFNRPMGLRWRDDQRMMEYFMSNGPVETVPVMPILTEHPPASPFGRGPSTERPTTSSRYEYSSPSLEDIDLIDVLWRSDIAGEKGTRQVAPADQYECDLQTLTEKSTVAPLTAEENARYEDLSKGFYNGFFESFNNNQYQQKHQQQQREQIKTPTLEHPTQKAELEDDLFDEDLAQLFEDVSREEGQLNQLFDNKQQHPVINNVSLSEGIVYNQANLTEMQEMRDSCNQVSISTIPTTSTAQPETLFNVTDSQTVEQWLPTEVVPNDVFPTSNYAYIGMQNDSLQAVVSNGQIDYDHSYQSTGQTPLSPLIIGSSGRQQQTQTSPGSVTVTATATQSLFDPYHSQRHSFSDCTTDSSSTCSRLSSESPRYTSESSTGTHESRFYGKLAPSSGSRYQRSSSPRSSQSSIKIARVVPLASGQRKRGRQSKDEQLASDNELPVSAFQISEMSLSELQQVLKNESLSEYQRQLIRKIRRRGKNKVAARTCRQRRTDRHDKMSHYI

[1] = luciferase reporter signal suppression in cells – H4 neuroglioma cells, luminescence, dose response (AID 1990); type: functional, cell-based
BJ [2] = assay: BJ-TERT fibroblast viability loss – cell-based, RAS-independent, luminescence, dose response (AID 1933); type: functional; settings: Homo sapiens
[3] = Luminescence Cell-Based Dose Response HTS to Identify Inhibitors of 5'UTR Stem-Loop Driven Prion Protein mRNA Translation in H4 Neuroglioblastoma Cells. [Related pubchem assays: 1827 (Project Summary), 1813 (Primary HTS)]; type: functional
[4] = alpha-synuclein stem-loop luciferase translation blockers – H4 neuroglioma cells, luminescence, confirmation (AID 1988); type: functional, cell-based
BJ [5] = assay: cells; type: functional, cell-based; settings: Homo sapiens
BJ [6] = assay: BJ-TERT-LT-ST fibroblast viability loss – cell-based, RAS-independent, luminescence, dose response (AID 1935); type: functional; settings: Homo sapiens;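 further: BJ fibroblasts immortalized with TERT plus LT and ST oncogenes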
[7] = DRD fibroblast viability loss – cell-based, non-viral oncogenic, luminescence, dose response (AID 1934); type: functional; settings: Homo sapiens
[8] = target: T2, Corticotropin-releasing factor receptor 2/Corticotropin-releasing factor-binding protein (Homo sapiens, UniProt P24387+Q13324); assay: Dose Response confirmation of uHTS hits for small molecule antagonists of the CRF-binding protein and CRF-R2 receptor complex.; type: functional; settings: read-out: IC50_Mean
T2 sequence (Q13324 whole entry): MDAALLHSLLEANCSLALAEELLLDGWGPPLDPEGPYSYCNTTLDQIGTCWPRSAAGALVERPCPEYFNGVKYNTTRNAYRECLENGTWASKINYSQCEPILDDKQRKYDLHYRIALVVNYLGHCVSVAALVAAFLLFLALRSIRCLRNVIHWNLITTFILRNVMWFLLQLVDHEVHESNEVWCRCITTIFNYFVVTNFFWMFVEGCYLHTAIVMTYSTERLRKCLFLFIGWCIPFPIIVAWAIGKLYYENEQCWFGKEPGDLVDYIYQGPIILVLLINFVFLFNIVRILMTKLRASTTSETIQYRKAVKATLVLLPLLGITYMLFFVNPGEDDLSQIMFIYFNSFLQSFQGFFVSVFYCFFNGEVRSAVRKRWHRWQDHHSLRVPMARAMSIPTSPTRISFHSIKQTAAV
T2 sequence (P24387 whole entry): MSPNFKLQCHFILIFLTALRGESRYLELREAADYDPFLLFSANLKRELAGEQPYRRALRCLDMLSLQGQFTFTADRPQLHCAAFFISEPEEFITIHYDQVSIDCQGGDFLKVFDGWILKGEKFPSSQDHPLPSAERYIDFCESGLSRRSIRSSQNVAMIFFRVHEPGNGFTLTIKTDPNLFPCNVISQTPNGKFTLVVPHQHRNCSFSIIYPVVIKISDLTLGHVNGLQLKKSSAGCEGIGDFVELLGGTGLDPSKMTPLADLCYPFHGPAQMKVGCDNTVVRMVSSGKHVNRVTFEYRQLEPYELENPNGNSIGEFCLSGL

[9] = target: T2, Corticotropin-releasing factor receptor 2/Corticotropin-releasing factor-binding protein; assay: activators of CRF receptor 2 with binding protein – uHTS hits, confirmation (AID 602473); type: functional; settings: read-out: EC50_Mean
[10] = test system: Streptococcus sp. 'group A'; assay: Streptococcus pyogenes SK(-)GAS viability under kanamycin – luminescence, BacTiterGlo, confirmation, counter-screen for streptokinase expression inhibitor project, dose response (AID 1900); type: functional, organism-based
Streptococcus = assay: GAS UMAA2166 growth inhibition – luminescence, BacTiterGlo, counter-screen for streptokinase expression inhibitor project, dose response (AID 1915); type: functional, organism-based;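 further: potency for reduction of bacterial viability or growth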
[11] = viability of PTEN-deleted HCT116 cells – cell-based, HCT116 PTEN knockout, dose response (AID 1047); type: functional;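 further: HCT116 colon tumor cells with PTEN knocked out; cells exposed to compound for 60 hours before readout; potency for loss of cell viability measured by luminescence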
[12] = viability of HCT116 lacking mutant beta-catenin – cell-based, human colon tumor, dose response (AID 1045); type: functional;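 further: HCT116 colon tumor cells with beta catenin knocked out; cells exposed to compound for 60 hours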
[13] = target: T3, Heat shock factor protein 1 (Mus musculus, UniProt P38532); assay: enhancement of HSF1-driven luciferase signal – cell-based, NIH3T3, luminescence, dose retest, confirmation (AID 435004); type: functional;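 further: stress induced by proteasome inhibitor MG132 added 30 min after compound; luciferase reporter driven by HSF1 response element in NIH3T3 cells; actives raise luminescence as potentiators of the MG132 stress response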
T3 sequence (P38532 whole entry): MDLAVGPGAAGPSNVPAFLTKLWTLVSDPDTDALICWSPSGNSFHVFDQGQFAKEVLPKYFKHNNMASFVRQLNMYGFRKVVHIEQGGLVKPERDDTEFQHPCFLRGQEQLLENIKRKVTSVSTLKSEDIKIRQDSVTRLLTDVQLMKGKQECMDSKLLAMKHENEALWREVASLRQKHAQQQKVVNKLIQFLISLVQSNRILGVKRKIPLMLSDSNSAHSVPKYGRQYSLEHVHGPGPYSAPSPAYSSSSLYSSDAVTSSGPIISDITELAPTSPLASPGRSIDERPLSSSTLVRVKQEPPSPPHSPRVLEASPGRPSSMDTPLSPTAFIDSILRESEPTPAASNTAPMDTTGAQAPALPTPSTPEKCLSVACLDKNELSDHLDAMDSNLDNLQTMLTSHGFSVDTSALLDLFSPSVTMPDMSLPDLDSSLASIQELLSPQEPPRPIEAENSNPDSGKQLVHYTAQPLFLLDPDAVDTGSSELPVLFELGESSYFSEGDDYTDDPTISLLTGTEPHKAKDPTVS

Paired box protein Pax-8 = Paired box protein Pax-8 (Homo sapiens, UniProt Q06710); assay: PAX8 transcriptional activity inhibition in RMG-I – RMG-I cells, luciferase, cherry-pick, dose response (AID 687027); type: functional, cell-based;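 further: luciferase reporter driven by Pax8 target thyroperoxidase promoter measured by SteadyGlo luminescence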
Paired box protein Pax-8, sequence (Q06710 whole entry): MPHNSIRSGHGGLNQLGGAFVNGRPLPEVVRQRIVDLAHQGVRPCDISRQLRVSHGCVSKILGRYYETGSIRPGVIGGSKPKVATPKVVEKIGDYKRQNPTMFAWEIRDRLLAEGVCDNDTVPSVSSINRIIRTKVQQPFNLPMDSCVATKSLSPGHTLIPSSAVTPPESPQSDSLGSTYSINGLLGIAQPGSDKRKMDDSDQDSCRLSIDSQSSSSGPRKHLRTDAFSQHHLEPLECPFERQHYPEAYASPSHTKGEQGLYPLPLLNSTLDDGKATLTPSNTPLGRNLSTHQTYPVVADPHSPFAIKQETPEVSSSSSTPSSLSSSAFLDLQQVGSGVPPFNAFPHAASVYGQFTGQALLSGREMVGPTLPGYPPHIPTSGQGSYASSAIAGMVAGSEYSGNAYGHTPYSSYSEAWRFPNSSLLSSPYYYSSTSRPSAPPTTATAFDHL

[14] = Luminescence Cell-Based Dose Response HTS to Identify Activators of Luciferase Translation or Activity in H4 […] Cells. [Related pubchem assays: 1829 (Project Summary), 1814 (Primary HTS)]; type: functional
H4 = assay: Luminescence Cell-Based Dose Response HTS to Identify Activators of 5'UTR Stem-Loop Driven Prion Protein mRNA Translation in H4 Neuroglioblastoma Cells. [Related pubchem assays: 1829 (Project Summary), 1814 (Primary HTS)]; type: functional; settings: Homo sapiens

CC(=O)NCCc1cc2cc(C)c(C)cc2nc1O
IC50 (Protein skinhead-1): > 100 µM (inactive)

Cc1cc(N2CCN(Cc3cn(C)nc3-c3cccc(Cl)c3)CC2)cc(C)n1
EC50 [1]: 10.4 µM (active)
EC50 (BJ [2]): 11.3 µM (active)
EC50 [3]: 8.87 µM (active)
EC50 [4]: 10.6 µM (active)
EC50 (BJ [5]): 18.7 µM (active)
EC50 (BJ [6]): > 150 µM (inconclusive)
EC50 [7]: 11.8 µM (active)

Cc1cc(C(=O)CN2C(=O)NC3(CCCc4ccccc43)C2=O)c(C)n1Cc1ccccc1 (stereo not drawn)
IC50 (Protein skinhead-1): > 100 µM (inactive)

COc1nc(-c2ccccc2)ccc1-c1noc(-c2ccco2)n1
IC50 (Protein skinhead-1): > 100 µM (inactive)

Cc1nn(C(C)C(=O)O)c(=O)c2ccccc12 (stereo not drawn)
IC50 [8]: > 47.1 µM (inactive)
EC50 [9]: > 53 µM (inactive)

CCCCc1nnc2c(N(C)S(=O)(=O)c3ccccc3)nc3ccccc3n12
IC50 [8]: > 47.1 µM (inactive)
EC50 [9]: > 53 µM (inactive)

CCCCN(CC)S(=O)(=O)c1ccc(C(=O)Nc2nnc(-c3ccccc3Cl)o2)cc1
EC50 [1]: 11.9 µM (active)
EC50 [10]: 0.2 µM (active)
EC50 [3]: 12.1 µM (active)
EC50 [4]: 10 µM (active)
EC50 (Streptococcus): 0.737 µM (active)

COC(=O)c1sc(-c2ccccc2)cc1NC(=O)c1cc(OC)cc(OC)c1
EC50 [11]: 25.3 µM (active)
EC50 [12]: 21.7 µM (active)

COc1ccc(S(=O)(=O)NNC(=O)c2csc(-n3nc(C)cc3C(F)(F)F)n2)cc1
IC50 [8]: > 47.1 µM (inactive)
EC50 [9]: > 53 µM (inactive)

O=C(/C=C/c1ccc(-c2ccccc2[N+](=O)[O-])o1)c1ccccc1
EC50 [11]: 22.5 µM (active)
EC50 [12]: 22.3 µM (active)

O=[N+]([O-])c1ccc(COc2cccc3cccnc23)cc1
IC50 (Protein skinhead-1): > 100 µM (inactive)

O=C(c1ccc2c(=O)n3c(nc2c1)CCCCC3)N1CCN(C(c2ccccc2)c2ccccc2)CC1
EC50 [1]: 12.7 µM (active)
EC50 [3]: 28.3 µM (active)
EC50 [4]: 24.1 µM (active)
EC50 [13]: > 260 µM (inactive)

CCn1c2ccc(F)cc2c2nc3ccccc3nc21
IC50 (Protein skinhead-1): > 100 µM (inactive)

C=C(C)c1cccc(C(C)(C)NC(=O)N2CCN(c3ccccc3OC)CC2)c1
AC50 (Paired box protein Pax-8): 65.2 µM (active)

COc1ccc(NC(=O)c2cc(C(=O)Nc3ccc(OC)cc3OC)cc([N+](=O)[O-])c2)c(OC)c1
IC50 [8]: > 47.1 µM (inactive)
EC50 [9]: > 53 µM (inactive)

CC(C1CC1)N(Cc1ccccc1)C(S)=Nc1cccc(C(F)(F)F)c1 (stereo not drawn)
AC50 (Paired box protein Pax-8): 33.2 µM (active)

O=C(COC(=O)CC1c2ccccc2CCN1S(=O)(=O)c1ccc(F)cc1)Nc1ccccc1 (stereo not drawn)
IC50 [8]: > 47.1 µM (inactive)
EC50 [9]: > 53 µM (inactive)

COc1ccc(C)cc1C(=O)CCC(=O)Nc1ccccc1N1CCOCC1
EC50 [11]: 7.32 µM (active)
EC50 [12]: 5.33 µM (active)

O=C(c1ccc(Br)cc1)N1CCN(c2ncccn2)CC1
IC50 [8]: > 47.1 µM (inactive)
EC50 [9]: > 53 µM (inactive)

CCCC1(CCC)NC(=O)N(CC(=O)Nc2ccc(Cl)c(S(=O)(=O)N3CCOCC3)c2)C1=O
IC50 [8]: > 47.1 µM (inactive)
EC50 [9]: > 53 µM (inactive)

CN(C)c1ccc(/C=C(/C#N)C(=O)Nc2nc3c(s2)CCN(Cc2ccccc2)C3)cc1
EC50 [9]: 2.1 µM (active)
IC50 (Protein skinhead-1): > 100 µM (inactive)

C[C@H](O)[C@@H]1CN2CCc3c([nH]c4ccc(-c5ccc6c(c5)OCO6)cc34)[C@@H]2C[C@@H]1N(C)C(=O)NC1CCCCC1
AC50 (Paired box protein Pax-8): 5.9 µM (active)

CCn1ncc(C(=O)Nc2ccc([N+](=O)[O-])cc2OC)c1C
IC50 [8]: > 47.1 µM (inactive)
EC50 [9]: > 53 µM (inactive)

COc1cc(/C=N/NC(=O)c2ccc(CN3C(=O)c4cccc5cccc3c45)cc2)cc(OC)c1O
AC50 (Paired box protein Pax-8): 0.286 µM (active)

C=CCN(c1ccc(C(=O)NC(C)C)cc1)S(C)(=O)=O
IC50 (Protein skinhead-1): > 100 µM (inactive)

COC(=O)[C@]12CCCCC=C1N(Cc1ccc(Cl)cc1Cl)C(=O)[C@H](CC(=O)N1CCN(C(=O)c3ccco3)CC1)C2
AC50 (Paired box protein Pax-8): 1.33 µM (active)

O=S(=O)(c1ccc(F)cc1)N1C[C@H]2[C@@H](c3ccccc31)[C@H](CO)N2Cc1ccccc1Cl
AC50 (Paired box protein Pax-8): 11 µM (active)

C[C@@H]1CN([C@@H](C)CO)C(=O)c2cccc(NC(=O)c3ccncc3)c2O[C@@H]1CN(C)S(=O)(=O)c1cccs1
AC50 (Paired box protein Pax-8): 69.5 µM (active)

C[C@H]1CCCCO[C@H](CN(C)C(=O)Nc2ccc(C(F)(F)F)cc2)[C@@H](C)CN([C@@H](C)CO)C(=O)c2cc(NS(=O)(=O)c3cccs3)ccc2O1
AC50 (Paired box protein Pax-8): 7.75 µM (active)

N#C/C(=C\c1cccnc1)c1ccc(Br)cc1
IC50 (Protein skinhead-1): > 100 µM (inactive)

O=c1c2cc(-c3ccccc3)sc2ncn1/N=C/c1ccco1
EC50 [14]: 14.8 µM (active)
EC50 (H4): 56.4 µM (active)
IC50 (Protein skinhead-1): 22.1 µM (active)

O=C(N/N=C/c1ccccc1O)c1cccc2ccccc12
EC50 [1]: 2.12 µM (active)
EC50 [10]: 1.58 µM (active)
EC50 [3]: 17.1 µM (active)
EC50 [4]: 6.71 µM (active)
EC50 (Streptococcus): 6.12 µM (active)
